SMILES strings stand for the structures.

The record followed here is ChEMBL document CHEMBL2331498, “Mycoleptodiscins A and B, cytotoxic alkaloids from the endophytic fungus Mycoleptodiscus sp. F0194” (J Nat Prod, 2013).

The subject of one assay is IMR-90. The experiment in a line: Cytotoxicity against human IMR90 cells after 96 hrs by CellTiter-Glo assay. In kind it is cell-based. Conditions: IMR-90, 96 h. Background: In ATP-based viability assays light output follows the ATP content of the culture.
For another assay, the system named is PC-3. The experiment in a line: Cytotoxicity against human PC3 cells after 96 hrs by CellTiter-Glo assay. In kind it is functional, cell-based. Conditions: PC-3, 96 h.
The next assay has as its system A2058. The experiment in a line: Cytotoxicity against human A2058 cells after 96 hrs by CellTiter-Glo assay. In kind it is functional, cell-based. Conditions: A2058, 96 h.
A short description of assay [1]: Cytotoxicity against human H522-T1 cells after 96 hrs by CellTiter-Glo assay. Format: functional, cell-based. To be noted: H522-T1, 96 h.
Assay [2] is described as follows: Cytotoxicity against human H460 cells after 96 hrs by CellTiter-Glo assay. In kind it is functional, cell-based. Conditions: NCI-H460, 96 h.

`N#CC(=O)C#N` [CARBONYL CYANIDE] came in with an IC50 in the assay with IMR-90 of 5 µM.

As for `CC1(C)CCC[C@@]2(C)C1CC[C@@]1(C)C3=CC(=O)C(=O)c4[nH]cc(c43)C[C@@]12O` (some centres undefined) [MYCOLEPTODISCIN B], the IC50 with IMR-90 was 0.41 µM; with PC-3 it was 0.6 µM; in the assay on A2058 it was 0.78 µM; in assay [1], 0.63 µM; in assay [2], 0.66 µM.

On to `CC[C@]1(O)C[C@@H]2CN(CCc3c([nH]c4ccccc34)[C@@](C(=O)OC)(c3cc4c(cc3OC)N(C)[C@H]3[C@@](O)(C(=O)OC)[C@H](OC(C)=O)[C@]5(CC)C=CCN6CC[C@]43[C@@H]65)C2)C1` [VINBLASTINE], for which the IC50 in the assay with PC-3 turned out to be 0.005 µM; in assay [1], 0.009 µM; in assay [2], 0.002 µM.

For orientation: IC50 means the concentration that inhibits the measured activity by half. Higher therefore signals weaker potency in that assay.
